Measurements: article PMC3323742 (Biochemistry, 2012)

Target: 2-methylisoborneol synthase (MIBS), full length (Streptomyces coelicolor, UniProt Q9F1Y6, E193A)
Assay: GC-MS of pentane-extracted products
Type: biochemical
Conditions: 60 μM substrate, 5 μM enzyme, 10 mM MgCl2, pH 7.0, 30 °C, 12 h

Sequence of 2-methylisoborneol synthase (MIBS), full length (Q9F1Y6 whole entry E193A): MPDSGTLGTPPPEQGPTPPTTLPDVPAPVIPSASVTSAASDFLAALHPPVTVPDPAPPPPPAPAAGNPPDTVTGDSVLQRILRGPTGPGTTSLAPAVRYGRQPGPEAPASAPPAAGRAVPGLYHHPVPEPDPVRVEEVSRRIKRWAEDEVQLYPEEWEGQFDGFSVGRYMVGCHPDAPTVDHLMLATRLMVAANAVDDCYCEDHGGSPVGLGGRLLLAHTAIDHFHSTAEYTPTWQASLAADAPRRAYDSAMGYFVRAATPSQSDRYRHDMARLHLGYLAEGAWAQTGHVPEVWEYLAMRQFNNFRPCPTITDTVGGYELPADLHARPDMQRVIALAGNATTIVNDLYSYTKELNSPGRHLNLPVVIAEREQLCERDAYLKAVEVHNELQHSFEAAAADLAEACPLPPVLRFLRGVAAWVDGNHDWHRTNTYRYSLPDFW

CC(C)=CCC/C(C)=C(\C)COP(=O)(O)OP(=O)(O)O [2MGPP, 2-methylgeranyl diphosphate]
GC-MS of pentane-extracted products: overnight incubation of the E193A, E193L, and E193D mutants with 2MGPP
